In brackets after ≈: the same amount, converted by molar mass. Like-named read-outs stand apart in the source and are kept apart here.
Experiments:
[1] = tested on: M. avium DSM 44156 (ATCC 25291); assay: Antimycobacterial MIC, microdilution broth / resazurin; type: cell-based, Mycobacterium avium; conditions: Mycobacterium avium; resazurin after 96 h; read-out: MIC M. avium
[2] = tested on: Mtb H37Rv CNCTC My 331/88 (ATCC 27294); assay: microbe, parasite or virus in culture; type: cell-based; conditions: Mycobacterium tuberculosis, read-out: MIC Mtb H37Rv
[3] = tested on: M. aurum DSM 43999 (ATCC 23366); assay: Antimycobacterial MIC, microdilution broth / resazurin; type: cell-based; conditions: Mycolicibacterium aurum, read-out: MIC M. aurum
[4] = tested on: M. smegmatis DSM 43465 (ATCC 607); assay: as above; type: cell-based; conditions: Mycolicibacterium smegmatis; resazurin after 48 h; read-out: MIC M. smegmatis
[5] = tested on: Mycobacterium tuberculosis H37Ra ITM-M006710 (ATCC 9431); assay: Antimycobacterial MIC, microdilution broth / Alamar Blue (resazurin); type: cell-based; conditions: Mycobacterium tuberculosis
[6] = tested on: M. kansasii DSM 44162 (ATCC 12478); assay: Antimycobacterial MIC, microdilution broth / resazurin; type: cell-based; conditions: Mycobacterium kansasii; resazurin after 96 h; read-out: MIC M. kansasii
[7] = tested on: M. tuberculosis H37Rv; conditions: whole cell; cited from earlier work
[8] = tested on: Mtb laboratory ID MATI; type: cell-based, Mycobacterium tuberculosis; conditions: MDR strain MATI, CLSI breakpoints 2021
[9] = tested on: Mtb MATI (MDR clinical isolate); assay: microbe, parasite or virus in culture; type: cell-based; conditions: Mycobacterium tuberculosis, read-out: MIC Mtb MATI
[10] = tested on: Mtb IZAK (MDR clinical isolate); assay: microbe, parasite or virus in culture; type: cell-based; conditions: Mycobacterium tuberculosis, read-out: MIC Mtb IZAK
[11] = tested on: Staphylococcus aureus subsp. aureus (MRSA) CCM 4750 (ATCC 43300); assay: Antibacterial microdilution broth (EUCAST); type: cell-based; conditions: Staphylococcus aureus; 24h incubation; read-out: MIC MRSA
[12] = tested on: HepG2 cells; assay: HepG2 cytotoxicity screening (CellTiter 96); type: cell-based, human
[13] = tested on: Enterococcus faecalis CCM 4224 (ATCC 29212); assay: Antibacterial microdilution broth (EUCAST); type: cell-based; conditions: Enterococcus faecalis; 24h incubation; read-out: MIC EF
[14] = tested on: Candida parapsilosis CCM 8260 (ATCC 22019); assay: Antifungal microdilution broth (EUCAST); conditions: Lodderomyces parapsilosis, 24 h, read-out: MIC CP
[15] = tested on: Candida albicans CCM 8320 (ATCC 24433); assay: Antifungal microdilution broth (EUCAST); conditions: Candida albicans, 24 h, read-out: MIC CA
[16] = tested on: Pseudomonas aeruginosa CCM 3955 (ATCC 27853); assay: Antibacterial microdilution broth (EUCAST); type: cell-based; conditions: Pseudomonas aeruginosa; 72h incubation; read-out: MIC PA
[17] = tested on: Aspergillus flavus CCM 8363; assay: Antifungal microdilution broth (EUCAST); conditions: Aspergillus flavus, CCM8363, 24 h, read-out: MIC AFla
[18] = tested on: Staphylococcus epidermidis CCM 4418 (ATCC 12228); assay: Antibacterial microdilution broth (EUCAST); type: cell-based; conditions: Staphylococcus epidermidis; 24h incubation; read-out: MIC SE
[19] = tested on: Escherichia coli CCM 3954 (ATCC 25922); assay: Antibacterial microdilution broth (EUCAST); type: cell-based; conditions: Escherichia coli; 24h incubation; read-out: MIC EC
[20] = RP-UHPLC lipophilicity parameter log k’w; type: physicochemical
In short: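 Retention was measured once per eluent composition: subtype I at 40/45/50% and subtype II at 20/30/40% acetonitrile in water, isocratic RP-UHPLC. log k values from these runs gave the lipophilicity index log k’w.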

[21] = tested on: Aspergillus fumigatus ATCC 204305; assay: Antifungal microdilution broth (EUCAST); conditions: Aspergillus fumigatus, ATCC204305, 24 h, read-out: MIC AF
[22] = tested on: Candida tropicalis CCM 8264 (ATCC 750); assay: Antifungal microdilution broth (EUCAST); conditions: Candida tropicalis, 24 h, read-out: MIC CT
[23] = tested on: Candida krusei CCM 8271 (ATCC 6258); assay: Antifungal microdilution broth (EUCAST); conditions: Pichia kudriavzevii, 24 h, read-out: MIC CK
[24] = tested on: Acinetobacter baumannii DSM 30007 (ATCC 19606); assay: Antibacterial microdilution broth (EUCAST); type: cell-based; conditions: Acinetobacter baumannii; 24h incubation; read-out: MIC AB
[25] = tested on: Lichtheimia corymbifera CCM 8077; assay: Antifungal microdilution broth (EUCAST); conditions: Lichtheimia corymbifera, CCM8077, 24 h, read-out: MIC LC
[26] = tested on: Trichophyton interdigitale CCM 8377 (ATCC 9533); assay: Antifungal microdilution broth (EUCAST); conditions: Trichophyton interdigitale, 72 h, read-out: MIC TI
[27] = tested on: Staphylococcus aureus subsp. aureus CCM 4223 (ATCC 29213); assay: Antibacterial microdilution broth (EUCAST); type: cell-based; conditions: Staphylococcus aureus; 24h incubation; read-out: MIC SA
[28] = 120 h, Middlebrook 7H9, resazurin after 120 h, read-out: Mtb H37Ra MIC

## O=C(O)c1cn(C2CC2)c2cc(N3CCNCC3)c(F)cc2c1=O [CIP, ciprofloxacin, reference compound]
[1]
  MIC: 0.25 to 0.5 µg/mL (≈ 0.754 to 1.51 µM)
[2]
  MIC: 0.2 µg/mL (≈ 0.604 µM)
[3]; resazurin after 72 h
  MIC: 0.0156 µg/mL (≈ 0.0472 µM)
[4]
  MIC: 0.125 µg/mL (≈ 0.377 µM)
[5]; [28]
  MIC: 0.25 µg/mL
[6]
  MIC: 0.25 µg/mL (≈ 0.754 µM)

## O=C(Nc1nc(-c2ccccn2)cs1)c1ccncc1 [B]
[7]
  MIC: 1.6 to 3.1 µM

## NNC(=O)c1ccncc1 [INH, isoniazid, reference compound]
[1]
  MIC: 1000 µg/mL (≈ 7290 µM)
[2]
  MIC: 0.39 µg/mL (≈ 2.84 µM)
[8]
  Susceptibility: resistant
[3]; 72 h
  MIC: 3.91 µg/mL (≈ 28.5 µM)
[4]
  MIC: 15.6 to 31.2 µg/mL (≈ 114 to 228 µM)
[9]
  MIC: 12.5 µg/mL (≈ 91.1 µM)
[5]; [28]
  MIC: 0.25 µg/mL
[10]
  MIC: 12.5 µg/mL (≈ 91.1 µM)
[6]
  MIC: 3.12 to 6.25 µg/mL (≈ 22.8 to 45.6 µM)

## Cc1cc(C(=O)Nc2ncco2)cc(Cl)n1 [Compound 7b]
[11]
  MIC: 125 µM (≈ 29.7 µg/mL)
[1]
  MIC: 3.91 µg/mL (≈ 16.5 µM)
[2]
  MIC: 6.25 µg/mL (≈ 26.3 µM)
[12]; Homo sapiens, HepG2, 24 h, 24 h incubation, CellTiter 96, * above highest tested concentration, ** limited by insolubility in medium
  IC50: 959 µM
[12]; SI = IC50 (µM) HepG2 / MICH37Ra (µM)
  SI: >58.3
[3]; resazurin after 72 h
  MIC: 3.91 µg/mL (≈ 16.5 µM)
[4]
  MIC: 7.81 µg/mL (≈ 32.9 µM)
other
  melting point: 149 to 153 °C
[13]
  MIC: 500 µM (≈ 119 µg/mL)
[14]
  MIC: 500 µM (≈ 119 µg/mL)
[15]
  MIC: 125 µM (≈ 29.7 µg/mL)
[9]
  MIC: 3.13 µg/mL (≈ 13.2 µM)
[16]
  MIC: > 500 µM
[17]
  MIC: > 500 µM
[18]
  MIC: 125 µM (≈ 29.7 µg/mL)
[19]
  MIC: 250 µM (≈ 59.4 µg/mL)
[20]; RP-UHPLC, acetonitrile/water, log k extrapolated to 0% acetonitrile
  log k’w: 1.430
[20]; experimental lipophilicity parameter
  logkw: 1.43
[21]
  MIC: 250 µM (≈ 59.4 µg/mL)
[5]; [28]
  MIC: < 3.91 µg/mL
[5]; recalculated from µg/mL, read-out: MICH37Ra
  MIC: < 16.5 µM
[22]
  MIC: > 500 µM
[10]
  MIC: 3.13 µg/mL (≈ 13.2 µM)
[23]
  MIC: 500 µM (≈ 119 µg/mL)
[24]
  MIC: 500 µM (≈ 119 µg/mL)
[25]
  MIC: 125 µM (≈ 29.7 µg/mL)
[6]
  MIC: 7.81 µg/mL (≈ 32.9 µM)
[26]
  MIC: 125 µM (≈ 29.7 µg/mL)
[27]
  MIC: 62.5 µM (≈ 14.9 µg/mL)

Source: paper PMC9143880, “Improving Antimicrobial Activity and Physico-Chemical Properties by Isosteric Replacement of 2-Aminothiazole with 2-Aminooxazole” (Pharmaceuticals, 2022)
